Test results: PubChem BioAssay AID2060498 (Molecular Pharmacology Branch, DTP, NCI, 2025)

Test system: 171881-019-R-J1-PDC tumor spheroids, viability
Assay: Anticancer human tumor 171881-019-R-J1-PDC patient-derived invasive breast carcinoma cell line growth inhibition [GQUAD]
Conditions: spheroids with HUVEC and MSC; for IC50: curve of first compound; for viability, T/C: stronger effect = lower value; active means viability on the fitted dose curve at most 10% of control; inactive means the rest
Outline: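 Viability of tumor cells grown as complex spheroids with endothelial and stromal cells, exposed to drug combinations. Top concentration at or near clinical Cmax (else 10 microM), diluted in half-log increments.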

[1] = second compound 0.0316 µM, first compound 0.000999 µM
[2] = second compound 0.0316 µM, first compound 0.00316 µM
[3] = second compound 0.0316 µM, first compound 0.00999 µM
[4] = second compound 0.0316 µM, first compound 0.0316 µM
[5] = second compound 0.0316 µM, first compound 0.0999 µM
[6] = second compound 0.0316 µM, first compound 0.316 µM
[7] = second compound 0.1 µM, first compound 0.000999 µM
[8] = second compound 0.1 µM, first compound 0.00316 µM
[9] = second compound 0.1 µM, first compound 0.00999 µM
[10] = second compound 0.1 µM, first compound 0.0316 µM
[11] = second compound 0.1 µM, first compound 0.0999 µM
[12] = second compound 0.1 µM, first compound 0.316 µM
[13] = second compound 0.316 µM, first compound 0.000999 µM
[14] = second compound 0.316 µM, first compound 0.00316 µM
[15] = second compound 0.316 µM, first compound 0.00999 µM
[16] = second compound 0.316 µM, first compound 0.0316 µM
[17] = second compound 0.316 µM, first compound 0.0999 µM
[18] = second compound 0.316 µM, first compound 0.316 µM
[19] = second compound 1 µM, first compound 0.000999 µM
[20] = second compound 1 µM, first compound 0.00316 µM
[21] = second compound 1 µM, first compound 0.00999 µM
[22] = second compound 1 µM, first compound 0.0316 µM
[23] = second compound 1 µM, first compound 0.0999 µM
[24] = second compound 1 µM, first compound 0.316 µM
[25] = second compound 3.16 µM, first compound 0.000999 µM
[26] = second compound 3.16 µM, first compound 0.00316 µM
[27] = second compound 3.16 µM, first compound 0.00999 µM
[28] = second compound 3.16 µM, first compound 0.0316 µM
[29] = second compound 3.16 µM, first compound 0.0999 µM
[30] = second compound 3.16 µM, first compound 0.316 µM
[31] = second compound 10 µM, first compound 0.000999 µM
[32] = second compound 10 µM, first compound 0.00316 µM
[33] = second compound 10 µM, first compound 0.00999 µM
[34] = second compound 10 µM, first compound 0.0316 µM
[35] = second compound 10 µM, first compound 0.0999 µM
[36] = second compound 10 µM, first compound 0.316 µM
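Wherever viability, T/C is given: 100% = DMSO vehicle control viability.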

Cc1[nH]c2ccccc2c1CCNCc1ccc(/C=C/C(=O)NO)cc1 + CN(C)c1ccc(Nc2c3ccc(NC(=O)CCN4CCCC4)cc3nc3cc(NC(=O)CCN4CCCC4)ccc23)cc1
inactive: viability, T/C [1] 96.9% | viability, T/C [2] 104% | viability, T/C [3] 89.9% | viability, T/C [4] 76.9% | viability, T/C [5] 22% | viability, T/C [7] 95.4% | viability, T/C [8] 75.1% | viability, T/C [9] 84.5% | viability, T/C [10] 71.8% | viability, T/C [11] 20.2% | viability, T/C [13] 46.9% | viability, T/C [14] 45.1% | viability, T/C [15] 48.8% | viability, T/C [16] 28%
51.4 nM: IC50 (second compound 0.1 µM)
< 0.999 nM: IC50 (second compound 0.316 µM) | IC50 (second compound 1 µM) | IC50 (second compound 3.16 µM) | IC50 (second compound 10 µM)
active: viability, T/C [6] 0.39% | viability, T/C [12] 0.39% | viability, T/C [17] 10.8% | viability, T/C [18] 0.26% | viability, T/C [19] 4.23% | viability, T/C [20] 3.43% | viability, T/C [21] 4.51% | viability, T/C [22] 1.92% | viability, T/C [23] 0.8% | viability, T/C [24] 0.38% | viability, T/C [25] 0.41% | viability, T/C [26] 0.27% | viability, T/C [27] 0.37% | viability, T/C [28] 0.25% | viability, T/C [29] 0.14% | viability, T/C [30] 0.13% | viability, T/C [31] 0.18% | viability, T/C [32] 0.19% | viability, T/C [33] 0.16% | viability, T/C [34] 0.44% | viability, T/C [35] 0.27% | viability, T/C [36] 0.17%
55 nM: IC50 (second compound 0.0316 µM)

Cn1ncnc1[C@H]1c2n[nH]c(=O)c3cc(F)cc(c23)N[C@@H]1c1ccc(F)cc1 + CN(C)c1ccc(Nc2c3ccc(NC(=O)CCN4CCCC4)cc3nc3cc(NC(=O)CCN4CCCC4)ccc23)cc1
active: viability, T/C [25] 2.45% | viability, T/C [26] 2.11% | viability, T/C [27] 1.92% | viability, T/C [28] 1.34% | viability, T/C [29] 1.64% | viability, T/C [30] 2.41% | viability, T/C [31] 0.29% | viability, T/C [32] 0.56% | viability, T/C [33] 0.56% | viability, T/C [34] 0.4% | viability, T/C [35] 0.71% | viability, T/C [36] 1.05%
< 0.999 nM: IC50 (second compound 1 µM) | IC50 (second compound 3.16 µM) | IC50 (second compound 10 µM)
> 316 nM: IC50 (second compound 0.0316 µM) | IC50 (second compound 0.1 µM) | IC50 (second compound 0.316 µM)
inactive: viability, T/C [1] 95.8% | viability, T/C [2] 98% | viability, T/C [3] 91.5% | viability, T/C [4] 102% | viability, T/C [5] 88.9% | viability, T/C [6] 96.1% | viability, T/C [7] 105% | viability, T/C [8] 97.8% | viability, T/C [9] 98.8% | viability, T/C [10] 100% | viability, T/C [11] 72.9% | viability, T/C [12] 87.6% | viability, T/C [13] 87.7% | viability, T/C [14] 84.6% | viability, T/C [15] 89% | viability, T/C [16] 68.2% | viability, T/C [17] 79.3% | viability, T/C [18] 77% | viability, T/C [19] 35.8% | viability, T/C [20] 24.4% | viability, T/C [21] 34.5% | viability, T/C [22] 16.9% | viability, T/C [23] 22% | viability, T/C [24] 19.1%
